Laboratory results published in patent EP2646421B1, “7-NITRO-5-PHENYL-1-(PYRROLIDIN-1-YLMETHYL)-1H-BENZO[E][1,4]DIAZEPIN-2(3H)-ONE AND OTHER BENZODIAZEPINE DERIVATIVES” (Pignataro, Giuseppe, priority 2010, dated 2012).

What was measured:
Assay type in all cases: cell-based
[1] = biological target: T1, NCX1 (Canis lupus familiaris, UniProt P23685); experiment: Patch-clamp electrophysiology (whole-cell NCX currents), BHK-NCX1 cells; details: 10 nM, 10 minutes
T1 construct: expressed in transfected cells
Method: To further investigate the effects of this compound on the Na^+/Ca^2+ exchanger activity, we performed electrophysiological experiments on BHK cells stably transfected with each of NCX isoforms (named BHK-NCX1, BHK-NCX2 and BHK-NCX3).
(§1) The activity of NCX was established by means of three different subclones of baby hamsted kidney (BHK) cells that were stably transfected with one of each NCX isoforms, named BHK-NCX1, BHK-NCX2 and BHK-NCX3. These cell lines were grown on plastic dishes in a mix of DMEM and Ham's F12 media (1:1) (Gibco, Invitrogen, MI, Italy) supplemented with 5% fetal bovine serum, 100 U/ml penicillin, and 100 µg/ml streptomycin (Sigma, St. Louis, Missouri, USA). Cells were cultured in a humidified 5% CO2 atmosphere and at the temperature of 37°C.
NCX currents (/NCX) was recorded from BHK wild-type and BHK stably transfected cells with NCX1, NCX2, and NCX3 and all each mutated of single isoforrms by patch-clamp technique in whole-cell configuration. […] Data were acquired and analyzed by use of pClamp software (version 9.0, Molecular Devices). In brief, /NCX was recorded starting from a holding potential of -60 mV up to a short-step depolarization at +60 mV (60 ms) (He et al., 2003; Xiao et al., 2004). […] The current recorded in the descending portion of the ramp (from +60 to -120 mV) was used to plot the current-voltage (I-V) relation curve. […]

[2] = biological target: T2, NCX1Δf (Canis lupus familiaris, UniProt P23685, DEL273-712); experiment: Na+-dependent Ca2+ influx assay on BHK cells with f-loop deletion mutant; details: 10 nM; compared to wild-type NCX3 exposed to the same treatment
T2 construct: expressed in transfected cells
Method: In order to establish the molecular determinants of the effect of neurounina-1 on NCX1, we firstly performed a Na^+-dependent Ca^2+ influx assay on BHK cells stably transfected with a mutated NCX1 exchanger (NCX1Δf), in which a large portion of the f loop, region 241-680, was removed by deletion mutagenesis.
All experiments aimed to identify the binding site of neurounina-1 were performed on BHK cells stably transfected with a single NCX chimera or mutant.
The activity of the Na^+/Ca^2+ exchanger was measured by means of ^45Ca^2+ radiotracer variations in the cytoplasm of cells exposed to a protocol stimulating the forward or the reverse mode of the antiporter. The BHK cells expressing each mutated or non-mutated NCX isoform were cultured in 12-well dishes and incubated in 145 mM NaCl for 10 minutes and then in a medium containing only 145 mM N-Methyl D-glucamine (NMDG) and 10 µM of ^45Ca^2+. This rapid substitution of the medium from a high level of Na^+ to another one without Na^+ allow the ^45Ca^2+ influx (reverse mode). Before the medium substitution cells was incubated with 1 mM ouabain, a Na^+/K^+ pump inhibitor, and 10 µM monensin, a ionophore for extracellular Na^+. […] The medium was removed and cells were subsequently lysed with 0.1 N NaOH and aliquots were taken to determine radioactivity and protein content.

[3] = biological target: T3, NCX3 (Rattus norvegicus, UniProt P70549); experiment: 45Ca2+ radiotracer fluxes (efflux/influx) in BHK-NCX3 cells
T3 construct: expressed in transfected cells
Method: as §1
The activity of the Na^+/Ca^2+ exchanger was measured by means of ^45Ca^2+ radiotracer variations in the cytoplasm of cells exposed to a protocol stimulating the forward or the reverse mode of the antiporter. The BHK cells expressing each mutated or non-mutated NCX isoform were cultured in 12-well dishes and incubated in 145 mM NaCl for 10 minutes and then in a medium containing only 145 mM N-Methyl D-glucamine (NMDG) and 10 µM of ^45Ca^2+. This rapid substitution of the medium from a high level of Na^+ to another one without Na^+ allow the ^45Ca^2+ influx (reverse mode). Before the medium substitution cells was incubated with 1 mM ouabain, a Na^+/K^+ pump inhibitor, and 10 µM monensin, a ionophore for extracellular Na^+. After 30 seconds incubation, cells were washed with an ice-cold solution containing 2 mM La^3+ to stop ^45Ca^2+ uptake. The medium was removed and cells were subsequently lysed with 0.1 N NaOH and aliquots were taken to determine radioactivity and protein content.
In order to measure NCX activity in the forward mode, cells were firstly loaded with ^45Ca^2+ and subsequently exposed to a chemical protocol to stimulate the efflux of the radiotracer in the extracellular medium. In particular, cells were loaded with ^45Ca^2+ by using a solution containing 1 µM ionomycin, 145 mM Na^+ and ^45Ca^2+. Next, cells were exposed to a Ca^2+-free solution containing 2 mM EGTA. […] After 60 second, cells were lysed with […] NaOH and aliquots were taken to determine cytoplasmatic radioactivity. […]

T3 sequence (P70549 31-927): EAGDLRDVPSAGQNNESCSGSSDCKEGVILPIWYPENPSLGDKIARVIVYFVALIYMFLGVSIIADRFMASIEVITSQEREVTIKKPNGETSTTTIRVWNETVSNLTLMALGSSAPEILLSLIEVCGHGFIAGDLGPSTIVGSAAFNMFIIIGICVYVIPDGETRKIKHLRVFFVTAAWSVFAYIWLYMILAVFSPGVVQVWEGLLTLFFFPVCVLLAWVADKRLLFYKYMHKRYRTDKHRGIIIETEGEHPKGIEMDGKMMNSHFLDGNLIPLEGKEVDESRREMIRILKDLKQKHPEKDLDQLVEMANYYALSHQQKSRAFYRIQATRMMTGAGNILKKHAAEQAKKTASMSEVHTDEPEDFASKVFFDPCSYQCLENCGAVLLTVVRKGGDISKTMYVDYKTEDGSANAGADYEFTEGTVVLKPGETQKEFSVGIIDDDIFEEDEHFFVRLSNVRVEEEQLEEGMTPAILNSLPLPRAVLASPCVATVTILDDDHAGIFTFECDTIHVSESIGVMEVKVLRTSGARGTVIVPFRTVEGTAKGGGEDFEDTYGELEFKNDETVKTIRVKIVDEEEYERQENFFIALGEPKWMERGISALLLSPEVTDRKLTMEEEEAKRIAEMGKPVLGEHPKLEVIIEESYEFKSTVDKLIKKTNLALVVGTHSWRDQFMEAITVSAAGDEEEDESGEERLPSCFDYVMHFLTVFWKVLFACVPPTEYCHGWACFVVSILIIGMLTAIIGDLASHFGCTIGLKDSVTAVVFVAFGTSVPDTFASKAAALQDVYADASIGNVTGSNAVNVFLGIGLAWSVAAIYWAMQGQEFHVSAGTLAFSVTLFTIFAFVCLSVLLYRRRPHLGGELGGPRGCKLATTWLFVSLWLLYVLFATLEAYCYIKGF
T1 sequence (P23685 33-970): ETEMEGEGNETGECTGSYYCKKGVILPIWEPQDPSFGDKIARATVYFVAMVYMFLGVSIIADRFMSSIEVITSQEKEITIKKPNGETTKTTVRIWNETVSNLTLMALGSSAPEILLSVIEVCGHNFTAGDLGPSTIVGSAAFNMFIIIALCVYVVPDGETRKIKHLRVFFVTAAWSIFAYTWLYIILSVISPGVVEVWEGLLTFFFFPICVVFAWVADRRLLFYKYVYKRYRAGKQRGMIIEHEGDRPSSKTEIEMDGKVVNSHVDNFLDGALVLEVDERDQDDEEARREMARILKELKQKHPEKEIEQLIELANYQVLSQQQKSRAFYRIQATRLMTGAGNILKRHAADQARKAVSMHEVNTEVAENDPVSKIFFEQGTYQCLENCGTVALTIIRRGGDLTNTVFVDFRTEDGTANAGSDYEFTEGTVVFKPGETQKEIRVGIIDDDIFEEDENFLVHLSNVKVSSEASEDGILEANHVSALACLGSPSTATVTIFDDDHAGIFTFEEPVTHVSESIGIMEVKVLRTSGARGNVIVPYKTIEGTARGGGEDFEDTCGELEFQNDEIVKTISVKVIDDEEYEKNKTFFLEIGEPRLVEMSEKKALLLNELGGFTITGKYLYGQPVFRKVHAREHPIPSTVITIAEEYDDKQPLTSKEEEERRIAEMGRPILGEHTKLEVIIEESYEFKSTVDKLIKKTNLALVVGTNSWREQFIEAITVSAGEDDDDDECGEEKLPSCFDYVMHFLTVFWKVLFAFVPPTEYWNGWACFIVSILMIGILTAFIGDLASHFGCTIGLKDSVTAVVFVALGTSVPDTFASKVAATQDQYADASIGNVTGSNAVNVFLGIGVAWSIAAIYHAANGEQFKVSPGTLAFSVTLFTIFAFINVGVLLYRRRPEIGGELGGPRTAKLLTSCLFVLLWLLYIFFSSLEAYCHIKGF
T2 sequence (P23685 with tags, fused parts or gaps DEL273-712): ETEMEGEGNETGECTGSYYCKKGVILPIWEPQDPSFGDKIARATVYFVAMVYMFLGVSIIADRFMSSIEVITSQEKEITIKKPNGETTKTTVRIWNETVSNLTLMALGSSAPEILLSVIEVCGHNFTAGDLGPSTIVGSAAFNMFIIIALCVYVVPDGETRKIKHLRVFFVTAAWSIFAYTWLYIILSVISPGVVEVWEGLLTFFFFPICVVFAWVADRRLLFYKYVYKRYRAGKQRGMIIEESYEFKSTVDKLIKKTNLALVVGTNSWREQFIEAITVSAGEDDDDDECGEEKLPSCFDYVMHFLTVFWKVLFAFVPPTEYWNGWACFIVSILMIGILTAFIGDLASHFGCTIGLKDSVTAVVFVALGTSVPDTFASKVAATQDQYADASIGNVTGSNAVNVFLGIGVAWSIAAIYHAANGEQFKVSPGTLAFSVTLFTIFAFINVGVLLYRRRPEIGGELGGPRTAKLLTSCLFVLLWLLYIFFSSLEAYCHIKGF

O=C1CN=C(c2ccccc2)c2cc([N+](=O)[O-])ccc2N1CN1CCCC1 [neurounina-1, 7-nitro-5-phenyl-1-(pyrrolidin-1-ylmethyl)-1H-benzo[e][1,4]diazepin-2(3H)-one]
increased forward and reverse activity of NCX1 [1]: 60%
activity of the mutant NCX1Δf [2]: significantly increased
activity of NCX3, forward mode ([3]; 45Ca2+ radiotracer, forward mode): did not significantly affect
activity of NCX3, reverse mode ([3]; 45Ca2+ radiotracer, reverse mode): did not affect
NCX3 activity ([3]; forward and reverse mode, patch clamp, Fura-2 microfluorimetry and 45Ca2+ fluxes (summary)): did not exert any effect
